Test results: patent publication US20250084056A1, “SUBSTITUTED OXOISOINDOLINYL PIPERIDINE-2,6-DIONE COMPOUNDS” (BRISTOL-MYERS SQUIBB COMPANY, priority 2023, published 2025)

Tests used:
Assay type in all cases: cell-based
Phospho-Rb (Ser807/811) = test: Phospho-Retinoblastoma (pRB) Cellular Assay; conditions: NIH OVCAR3 cells, 24 hours; for IC50: concentration giving 50% response; for Emax: read-out: pRB Ymax
Method in brief: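 OVCAR3 cells seeded overnight, then dosed with serial dilutions for 24 h at 37° C. Lysed with kit mix plus phosphatase inhibitor, ≥4 h at room temperature, read on EnVision; 100% response set by reference compound at 10 μM, giving IC50 and Ymax.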

GSPT1 = GSPT1 (Homo sapiens, UniProt P15170+Q96SW2); test: GSPT1 Cellular Degradation Assay (DF15-GSPT1-ePL); set-up: expressed in transfected cells; conditions: DF15-GSPT1-ePL cells, 20 hours
Method in brief: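 Human DF15 cells co-expressing a GSPT1–ePL fusion were treated with compound in RPMI 1640/10% FBS for 20 h at 37 °C. GSPT1 level was read by enzyme-fragment-complementation luminescence after 60 min with detection reagent. The reference degrader at […] defined 75% response; DC50 and Dmax were reported.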

Cyclin E1 = Cyclin E1 (Homo sapiens, UniProt P24864+Q96SW2); test: Cyclin E1 Cellular Degradation Assay (MSD); set-up: endogenous in cells; host or cells: OVCAR3; conditions: for Ratio of GSPT1 DC50/Cyclin E1 DC50: selectivity for degradation of Cyclin E1 over GSPT1
Method in brief: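 OVCAR3 cells treated with compound for 24 h at 37 °C, lysed, and cyclin E1 measured by MSD sandwich immunoassay (rabbit capture, mouse detection anti-CCNE1). Reference degrader at […] defined 110% response; DC50 and Dmax derived from response.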

[1] = Homo sapiens, OVCAR-3, maximum response, reference compound at 10 μM = 100%
[2] = Cyclin E1 cellular degradation, maximum degradation

Chain of Cyclin E1 (P24864 whole entry): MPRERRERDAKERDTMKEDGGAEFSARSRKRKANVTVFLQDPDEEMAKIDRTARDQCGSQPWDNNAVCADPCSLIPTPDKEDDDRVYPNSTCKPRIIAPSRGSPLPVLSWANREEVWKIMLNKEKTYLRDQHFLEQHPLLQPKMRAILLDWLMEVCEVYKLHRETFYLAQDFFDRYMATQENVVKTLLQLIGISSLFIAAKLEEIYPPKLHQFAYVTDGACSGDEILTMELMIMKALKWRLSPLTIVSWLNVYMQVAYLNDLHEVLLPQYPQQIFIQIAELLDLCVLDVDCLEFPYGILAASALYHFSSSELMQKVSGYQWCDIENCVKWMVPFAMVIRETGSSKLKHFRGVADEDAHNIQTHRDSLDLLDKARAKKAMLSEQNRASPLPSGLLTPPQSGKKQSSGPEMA
Chain of Cyclin E1 (Q96SW2 whole entry): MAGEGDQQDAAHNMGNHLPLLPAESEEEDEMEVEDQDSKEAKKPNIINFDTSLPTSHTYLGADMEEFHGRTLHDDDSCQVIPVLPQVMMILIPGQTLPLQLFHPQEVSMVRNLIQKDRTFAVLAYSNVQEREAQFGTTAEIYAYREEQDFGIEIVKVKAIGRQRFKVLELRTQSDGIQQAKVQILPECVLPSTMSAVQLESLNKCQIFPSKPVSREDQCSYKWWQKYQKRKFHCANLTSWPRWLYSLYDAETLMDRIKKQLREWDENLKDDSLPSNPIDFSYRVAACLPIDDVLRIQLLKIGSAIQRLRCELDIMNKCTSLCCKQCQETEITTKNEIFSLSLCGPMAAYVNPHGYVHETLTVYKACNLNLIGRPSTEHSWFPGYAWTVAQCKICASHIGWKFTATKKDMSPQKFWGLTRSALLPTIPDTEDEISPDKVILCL
Chain of Cyclin E1 (Q16531 whole entry partner): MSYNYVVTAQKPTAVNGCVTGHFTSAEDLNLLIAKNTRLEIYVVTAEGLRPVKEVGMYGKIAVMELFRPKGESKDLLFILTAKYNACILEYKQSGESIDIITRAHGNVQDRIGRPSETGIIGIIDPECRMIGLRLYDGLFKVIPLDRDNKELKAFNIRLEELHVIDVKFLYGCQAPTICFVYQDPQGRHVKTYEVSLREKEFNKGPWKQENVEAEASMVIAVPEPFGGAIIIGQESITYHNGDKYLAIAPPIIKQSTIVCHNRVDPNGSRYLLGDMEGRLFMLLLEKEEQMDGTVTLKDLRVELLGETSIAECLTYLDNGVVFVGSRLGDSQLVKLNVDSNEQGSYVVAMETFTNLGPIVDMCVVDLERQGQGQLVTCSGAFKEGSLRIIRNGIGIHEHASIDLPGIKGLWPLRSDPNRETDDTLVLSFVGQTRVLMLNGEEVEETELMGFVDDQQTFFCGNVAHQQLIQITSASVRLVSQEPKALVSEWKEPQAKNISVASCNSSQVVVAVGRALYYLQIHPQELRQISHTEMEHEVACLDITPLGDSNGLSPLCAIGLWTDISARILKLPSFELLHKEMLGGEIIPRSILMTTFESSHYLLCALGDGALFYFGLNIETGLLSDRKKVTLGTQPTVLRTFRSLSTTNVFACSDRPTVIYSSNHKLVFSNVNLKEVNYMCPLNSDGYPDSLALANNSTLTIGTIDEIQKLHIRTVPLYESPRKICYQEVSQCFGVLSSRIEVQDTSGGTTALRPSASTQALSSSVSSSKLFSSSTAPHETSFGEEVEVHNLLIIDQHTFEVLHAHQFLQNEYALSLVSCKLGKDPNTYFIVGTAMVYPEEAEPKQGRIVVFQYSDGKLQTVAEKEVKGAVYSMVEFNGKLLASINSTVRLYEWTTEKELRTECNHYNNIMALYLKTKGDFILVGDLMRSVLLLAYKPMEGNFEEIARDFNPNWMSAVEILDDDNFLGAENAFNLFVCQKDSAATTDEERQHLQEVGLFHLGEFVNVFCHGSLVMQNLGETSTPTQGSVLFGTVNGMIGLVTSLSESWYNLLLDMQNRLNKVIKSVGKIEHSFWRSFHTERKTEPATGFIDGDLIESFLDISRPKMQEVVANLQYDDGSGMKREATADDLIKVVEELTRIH
Chain of GSPT1 (P15170 whole entry, the tested form may be a part): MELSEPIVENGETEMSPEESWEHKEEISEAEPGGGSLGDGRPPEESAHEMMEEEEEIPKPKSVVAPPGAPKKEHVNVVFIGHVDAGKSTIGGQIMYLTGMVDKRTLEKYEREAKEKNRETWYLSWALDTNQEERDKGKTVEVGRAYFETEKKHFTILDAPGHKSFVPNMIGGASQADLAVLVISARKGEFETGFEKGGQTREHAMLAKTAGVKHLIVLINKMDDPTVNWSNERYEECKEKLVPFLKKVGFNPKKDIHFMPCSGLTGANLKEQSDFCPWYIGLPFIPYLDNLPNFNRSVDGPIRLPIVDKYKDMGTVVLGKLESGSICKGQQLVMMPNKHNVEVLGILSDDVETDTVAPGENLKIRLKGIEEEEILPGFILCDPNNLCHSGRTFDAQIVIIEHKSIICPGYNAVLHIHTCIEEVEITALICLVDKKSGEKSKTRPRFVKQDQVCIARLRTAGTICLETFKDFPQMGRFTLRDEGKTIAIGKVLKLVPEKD
Chain of GSPT1 (Q96SW2 whole entry, the tested form may be a part): as the sequence (Q96SW2 whole entry) above
Chain of GSPT1 (Q16531 whole entry partner, the tested form may be a part): as the sequence (Q16531 whole entry partner) above

Structure (SMILES) | IC50 (Phospho-Rb (Ser807/811); Homo sapiens, OVCAR-3) [nM] | Emax (Phospho-Rb (Ser807/811); [1]) [%] | DC50 (GSPT1) [µM] | Dmax (GSPT1) [%] | DC50 (Cyclin E1; Cyclin E1 cellular degradation) [nM] | Dmax (Cyclin E1; [2]) [%] | Ratio of GSPT1 DC50/Cyclin E1 DC50 (Cyclin E1) | IC50 (Phospho-Rb (Ser807/811)) [nM] | pRB Ymax (Phospho-Rb (Ser807/811); maximum response, reference compound at 10 μM = 100%) [%] | GSPT1 Dmax (GSPT1) [%] | Cyclin E1 Dmax (Cyclin E1; [2]) [%]
COc1cc(Oc2ccccc2C(F)F)ccc1NC(=O)OCc1ccc2c(c1OC)C(=O)N(C1CCC(=O)NC1=O)C2 (stereo not shown) [Example 88, [2-(2,6-dioxopiperidin-3-yl)-4-methoxy-3-oxo-2,3-dihydro-1H-isoindol-5-yl]methyl N-{4-[2-(difluoromethyl)phenoxy]-2-methoxyphenyl}carbamate] | 227 | 10 | > 14 | 30 | 203 | 104 | >69 | – | – | – | –
COc1c(COC(=O)Nc2ccc(Oc3ccc(F)cc3C(F)F)cc2)ccc2c1C(=O)N(C1CCC(=O)NC1=O)C2 (stereo not shown) [Example 89, [2-(2,6-dioxopiperidin-3-yl)-4-methoxy-3-oxo-2,3-dihydro-1H-isoindol-5-yl]methyl N-{4-[2-(difluoromethyl)-4-fluorophenoxy]phenyl}carbamate] | 159 | 108 | > 14 | 42 | 289 | 101 | >48 | – | – | – | –
COc1c(COC(=O)Nc2ccc(Oc3ccccc3C(F)(F)F)cc2Cl)ccc2c1C(=O)N(C1CCC(=O)NC1=O)C2 (stereo not shown) [Example 90, [2-(2,6-dioxopiperidin-3-yl)-4-methoxy-3-oxo-2,3-dihydro-1H-isoindol-5-yl]methyl N-{2-chloro-4-[2-(trifluoromethyl)phenoxy]phenyl}carbamate] | 479 | 103 | > 14 | 10 | 200 | 100 | >70 | – | – | – | –
COc1c(COC(=O)Nc2ccc(Oc3ccc(Cl)c(F)c3)cc2F)ccc2c1C(=O)N(C1CCC(=O)NC1=O)C2 (stereo not shown) [Example 91, [2-(2,6-dioxopiperidin-3-yl)-4-methoxy-3-oxo-2,3-dihydro-1H-isoindol-5-yl]methyl N-[4-(4-chloro-3-fluorophenoxy)-2-fluorophenyl]carbamate] | 160 | 101 | > 14 | 20 | 223 | 106 | >63 | – | – | – | –
COc1c(COC(=O)Nc2ccc(Oc3ccccc3C)cc2)ccc2c1C(=O)N(C1CCC(=O)NC1=O)C2 (stereo not shown) [Example 92, [2-(2,6-dioxopiperidin-3-yl)-4-methoxy-3-oxo-2,3-dihydro-1H-isoindol-5-yl]methyl N-{4-[2-(^2H3)methylphenoxy]phenyl}carbamate] | – | – | > 14 | – | 170 | – | – | 34 | – | – | –
[2H]C([2H])([2H])c1ccccc1Oc1ccc(NC(=O)OCc2ccc3c(c2OC)C(=O)N(C2CCC(=O)NC2=O)C3)cc1 (stereo not shown) [Example 92, [2-(2,6-dioxopiperidin-3-yl)-4-methoxy-3-oxo-2,3-dihydro-1H-isoindol-5-yl]methyl N-{4-[2-(^2H3)methylphenoxy]phenyl}carbamate] | – | – | – | – | – | – | >82 | – | 112 | 23 | 114
COc1cc(Oc2ccccc2)ccc1NC(=O)OCc1ccc2c(c1OC)C(=O)N(C1CCC(=O)NC1=O)C2 (stereo not shown) [Example 93, [2-(2,6-dioxopiperidin-3-yl)-4-methoxy-3-oxo-2,3-dihydro-1H-isoindol-5-yl]methyl N-(2-methoxy-4-phenoxyphenyl)carbamate] | 159 | 111 | > 14 | 5 | 338 | 103 | >41 | – | – | – | –
COc1c(COC(=O)Nc2ccc(Oc3cc(F)c(F)cc3C)cc2F)ccc2c1C(=O)N(C1CCC(=O)NC1=O)C2 (stereo not shown) [Example 94, [2-(2,6-dioxopiperidin-3-yl)-4-methoxy-3-oxo-2,3-dihydro-1H-isoindol-5-yl]methyl N-[4-(4,5-difluoro-2-methylphenoxy)-2-fluorophenyl]carbamate] | 287 | 107 | > 14 | 25 | 198 | 106 | >71 | – | – | – | –
COc1c(COC(=O)Nc2ccc(Oc3ccc(F)cc3C)cc2F)ccc2c1C(=O)N(C1CCC(=O)NC1=O)C2 (stereo not shown) [Example 95, [2-(2,6-dioxopiperidin-3-yl)-4-methoxy-3-oxo-2,3-dihydro-1H-isoindol-5-yl]methyl N-[2-fluoro-4-(4-fluoro-2-methylphenoxy)phenyl]carbamate] | 63 | 125 | > 14 | 36 | 274 | 110 | >51 | – | – | – | –
COc1c(COC(=O)Nc2ccc(Oc3ccc(F)c(C)c3)cc2)ccc2c1C(=O)N(C1CCC(=O)NC1=O)C2 (stereo not shown) [Example 96, [2-(2,6-dioxopiperidin-3-yl)-4-methoxy-3-oxo-2,3-dihydro-1H-isoindol-5-yl]methyl N-[4-(4-fluoro-3-methylphenoxy)phenyl]carbamate] | 100 | 117 | > 14 | 27 | 129 | 106 | >109 | – | – | – | –
COc1cc(Oc2ccc(F)c(C)c2)ccc1NC(=O)OCc1ccc2c(c1OC)C(=O)N(C1CCC(=O)NC1=O)C2 (stereo not shown) [Example 97, [2-(2,6-dioxopiperidin-3-yl)-4-methoxy-3-oxo-2,3-dihydro-1H-isoindol-5-yl]methyl N-[4-(4-fluoro-3-methylphenoxy)-2-methoxyphenyl]carbamate] | 326 | 101 | > 14 | 24 | 357 | 106 | >39 | – | – | – | –
COc1c(COC(=O)Nc2ccc(Oc3ccc(F)c(Cl)c3)cc2F)ccc2c1C(=O)N(C1CCC(=O)NC1=O)C2 (stereo not shown) [Example 98, [2-(2,6-dioxopiperidin-3-yl)-4-methoxy-3-oxo-2,3-dihydro-1H-isoindol-5-yl]methyl N-[4-(3-chloro-4-fluorophenoxy)-2-fluorophenyl]carbamate] | 92 | 106 | > 14 | 28 | 97 | 109 | >144 | – | – | – | –
COc1c(COC(=O)Nc2ccc(Oc3ccc(F)c(C)c3)cc2F)ccc2c1C(=O)N(C1CCC(=O)NC1=O)C2 (stereo not shown) [Example 99, [2-(2,6-dioxopiperidin-3-yl)-4-methoxy-3-oxo-2,3-dihydro-1H-isoindol-5-yl]methyl N-[2-fluoro-4-(4-fluoro-3-methylphenoxy)phenyl]carbamate] | 221 | 114 | > 14 | 22 | 118 | 109 | >118 | – | – | – | –
COc1cc(Oc2ccc(F)c(Cl)c2)ccc1NC(=O)OCc1ccc2c(c1OC)C(=O)N(C1CCC(=O)NC1=O)C2 (stereo not shown) [Example 100, [2-(2,6-dioxopiperidin-3-yl)-4-methoxy-3-oxo-2,3-dihydro-1H-isoindol-5-yl]methyl N-[4-(3-chloro-4-fluorophenoxy)-2-methoxyphenyl]carbamate] | 140 | 118 | > 14 | 33 | 327 | 112 | >43 | – | – | – | –
